The NIST ThermoML archive (doi:10.1021/acs.jced.7b00898)
± gives the expanded uncertainty stated by the source.

Assay: xn = mol fraction of the nth substance listed
Conditions: 100 kPa, Liquid; for electrical conductivity: Alternating current cell with electrodes; for viscosity: Falling or rolling sphere viscometry; for mass density: Vibrating tube method

C[n+]1ccn(CCCC#N)c1.F[B-](F)(F)F [1-butyronitrile-3-methylimidazolium tetrafluoroborate] + CC#N
Conditions | electrical conductivity [S/m] | mass density [kg/m3] | viscosity [mPa·s]
288.15 K, x1 = 0.1004 | 3.71 ± 0.5 | 951.03 ± 1.9 | 1.783 ± 0.18
288.15 K, x1 = 0.2003 | 2.62 ± 0.41 | 1058.56 ± 2.1 | 5.545 ± 0.56
288.15 K, x1 = 0.3013 | 1.68 ± 0.31 | 1131.24 ± 2.3 | 13.17 ± 1.3
288.15 K, x1 = 0.3996 | 1.05 ± 0.24 | 1179.83 ± 2.4 | 30.38 ± 3.1
288.15 K, x1 = 0.4999 | 0.558 ± 0.17 | 1218.22 ± 2.5 | 72.81 ± 7.3
288.15 K, x1 = 0.5996 | 0.365 ± 0.14 | 1248.27 ± 2.5 | 105.8 ± 11
288.15 K, x1 = 0.7001 | 0.28 ± 0.12 | 1271.85 ± 2.6 | 150.9 ± 16
288.15 K, x1 = 0.8024 | 0.157 ± 0.093 | 1289.62 ± 2.6 | 287 ± 33
288.15 K, x1 = 0.8885 | 0.126 ± 0.083 | 1302.35 ± 2.6 | 372.8 ± 44
288.15 K, x1 = 1 | 0.058 ± 0.056 | 1316.07 ± 2.7 | 590.6 ± 74
293.15 K, x1 = 0.1004 | 3.98 ± 0.53 | 946.91 ± 1.9 | 1.645 ± 0.17
293.15 K, x1 = 0.2003 | 2.89 ± 0.43 | 1054.28 ± 2.1 | 4.901 ± 0.49
293.15 K, x1 = 0.3013 | 1.93 ± 0.34 | 1126.73 ± 2.3 | 11.15 ± 1.1
293.15 K, x1 = 0.3996 | 1.24 ± 0.26 | 1175.56 ± 2.4 | 24.74 ± 2.5
293.15 K, x1 = 0.4999 | 0.685 ± 0.19 | 1214.12 ± 2.4 | 56.55 ± 5.7
293.15 K, x1 = 0.5996 | 0.467 ± 0.16 | 1244.16 ± 2.5 | 80.64 ± 8.2
293.15 K, x1 = 0.7001 | 0.352 ± 0.14 | 1268.21 ± 2.6 | 113.9 ± 12
293.15 K, x1 = 0.8024 | 0.208 ± 0.11 | 1286.11 ± 2.6 | 207.7 ± 23
293.15 K, x1 = 0.8885 | 0.174 ± 0.098 | 1298.72 ± 2.6 | 266.5 ± 30
293.15 K, x1 = 1 | 0.085 ± 0.068 | 1312.33 ± 2.7 | 417.9 ± 50
298.15 K, x1 = 0.1004 | 4.28 ± 0.55 | 942.92 ± 1.9 | 1.52 ± 0.15
298.15 K, x1 = 0.2003 | 3.2 ± 0.46 | 1049.89 ± 2.1 | 4.361 ± 0.44
298.15 K, x1 = 0.3013 | 2.21 ± 0.37 | 1122.41 ± 2.2 | 9.572 ± 0.96
298.15 K, x1 = 0.3996 | 1.46 ± 0.29 | 1171.47 ± 2.4 | 20.18 ± 2
298.15 K, x1 = 0.4999 | 0.834 ± 0.21 | 1210.15 ± 2.4 | 45.13 ± 4.5
298.15 K, x1 = 0.5996 | 0.588 ± 0.18 | 1240.19 ± 2.5 | 62.96 ± 6.3
298.15 K, x1 = 0.7001 | 0.47 ± 0.16 | 1264.41 ± 2.5 | 87.6 ± 8.9
298.15 K, x1 = 0.8024 | 0.286 ± 0.12 | 1282.71 ± 2.6 | 154.3 ± 16
298.15 K, x1 = 0.8885 | 0.236 ± 0.11 | 1294.92 ± 2.6 | 195.6 ± 21
298.15 K, x1 = 1 | 0.123 ± 0.082 | 1308.61 ± 2.7 | 302.6 ± 35
303.15 K, x1 = 0.1004 | 4.56 ± 0.58 | 938.82 ± 1.9 | 1.412 ± 0.14
303.15 K, x1 = 0.2003 | 3.51 ± 0.49 | 1045.59 ± 2.1 | 3.908 ± 0.39
303.15 K, x1 = 0.3013 | 2.5 ± 0.4 | 1117.84 ± 2.2 | 8.303 ± 0.83
303.15 K, x1 = 0.3996 | 1.7 ± 0.32 | 1167.21 ± 2.3 | 16.91 ± 1.7
303.15 K, x1 = 0.4999 | 0.997 ± 0.23 | 1205.98 ± 2.4 | 36.59 ± 3.7
303.15 K, x1 = 0.5996 | 0.719 ± 0.2 | 1236.29 ± 2.5 | 50.09 ± 5
303.15 K, x1 = 0.7001 | 0.585 ± 0.18 | 1260.73 ± 2.5 | 68.7 ± 6.9
303.15 K, x1 = 0.8024 | 0.372 ± 0.14 | 1279.28 ± 2.6 | 117.1 ± 12
303.15 K, x1 = 0.8885 | 0.308 ± 0.13 | 1291.38 ± 2.6 | 147 ± 16
303.15 K, x1 = 1 | 0.171 ± 0.097 | 1304.81 ± 2.6 | 223.3 ± 25
308.15 K, x1 = 0.1004 | 4.84 ± 0.6 | 934.73 ± 1.9 | 1.315 ± 0.13
308.15 K, x1 = 0.2003 | 3.83 ± 0.51 | 1041.36 ± 2.1 | 3.529 ± 0.35
308.15 K, x1 = 0.3013 | 2.8 ± 0.42 | 1113.43 ± 2.2 | 7.266 ± 0.73
308.15 K, x1 = 0.3996 | 1.97 ± 0.34 | 1163.02 ± 2.3 | 14.47 ± 1.4
308.15 K, x1 = 0.4999 | 1.19 ± 0.26 | 1201.89 ± 2.4 | 30.15 ± 3
308.15 K, x1 = 0.5996 | 0.87 ± 0.22 | 1232.29 ± 2.5 | 40.62 ± 4.1
308.15 K, x1 = 0.7001 | 0.719 ± 0.2 | 1257.04 ± 2.5 | 54.9 ± 5.5
308.15 K, x1 = 0.8024 | 0.475 ± 0.16 | 1275.69 ± 2.6 | 90.99 ± 9.3
308.15 K, x1 = 0.8885 | 0.392 ± 0.15 | 1287.73 ± 2.6 | 112.9 ± 12
308.15 K, x1 = 1 | 0.231 ± 0.11 | 1301.05 ± 2.6 | 169.9 ± 18
313.15 K, x1 = 0.1004 | 5.13 ± 0.62 | 930.78 ± 1.9 | 1.228 ± 0.12
313.15 K, x1 = 0.2003 | 4.16 ± 0.54 | 1037.03 ± 2.1 | 3.204 ± 0.32
313.15 K, x1 = 0.3013 | 3.1 ± 0.45 | 1109.04 ± 2.2 | 6.436 ± 0.64
313.15 K, x1 = 0.3996 | 2.27 ± 0.37 | 1158.93 ± 2.3 | 12.49 ± 1.2
313.15 K, x1 = 0.4999 | 1.4 ± 0.28 | 1197.89 ± 2.4 | 25.23 ± 2.5
313.15 K, x1 = 0.5996 | 1.04 ± 0.24 | 1228.43 ± 2.5 | 33.47 ± 3.4
313.15 K, x1 = 0.7001 | 0.87 ± 0.22 | 1253.43 ± 2.5 | 44.63 ± 4.5
313.15 K, x1 = 0.8024 | 0.599 ± 0.18 | 1272.33 ± 2.6 | 71.79 ± 7.2
313.15 K, x1 = 0.8885 | 0.491 ± 0.16 | 1284.14 ± 2.6 | 88.12 ± 8.9
313.15 K, x1 = 1 | 0.305 ± 0.13 | 1297.32 ± 2.6 | 128.7 ± 13
318.15 K, x1 = 0.1004 | 5.41 ± 0.65 | 926.61 ± 1.9 | 1.153 ± 0.12
318.15 K, x1 = 0.2003 | 4.49 ± 0.57 | 1032.73 ± 2.1 | 2.936 ± 0.29
318.15 K, x1 = 0.3013 | 3.4 ± 0.48 | 1104.71 ± 2.2 | 5.741 ± 0.58
318.15 K, x1 = 0.3996 | 2.59 ± 0.4 | 1154.62 ± 2.3 | 10.85 ± 1.1
318.15 K, x1 = 0.4999 | 1.63 ± 0.31 | 1193.83 ± 2.4 | 21.38 ± 2.1
318.15 K, x1 = 0.5996 | 1.22 ± 0.26 | 1224.39 ± 2.5 | 28 ± 2.8
318.15 K, x1 = 0.7001 | 1.04 ± 0.24 | 1249.69 ± 2.5 | 36.82 ± 3.7
318.15 K, x1 = 0.8024 | 0.734 ± 0.2 | 1268.86 ± 2.6 | 57.48 ± 5.8
318.15 K, x1 = 0.8885 | 0.603 ± 0.18 | 1280.51 ± 2.6 | 70.08 ± 7
318.15 K, x1 = 1 | 0.393 ± 0.15 | 1293.59 ± 2.6 | 100.6 ± 10
323.15 K, x1 = 0.1004 | 5.69 ± 0.67 | 922.4 ± 1.9 | 1.084 ± 0.11
323.15 K, x1 = 0.2003 | 4.82 ± 0.6 | 1028.51 ± 2.1 | 2.695 ± 0.27
323.15 K, x1 = 0.3013 | 3.7 ± 0.5 | 1100.31 ± 2.2 | 5.152 ± 0.52
323.15 K, x1 = 0.3996 | 2.95 ± 0.44 | 1150.56 ± 2.3 | 9.38 ± 0.94
323.15 K, x1 = 0.4999 | 1.87 ± 0.33 | 1189.85 ± 2.4 | 17.96 ± 1.8
323.15 K, x1 = 0.5996 | 1.42 ± 0.28 | 1220.51 ± 2.5 | 23.76 ± 2.4
323.15 K, x1 = 0.7001 | 1.22 ± 0.26 | 1245.99 ± 2.5 | 30.77 ± 3.1
323.15 K, x1 = 0.8024 | 0.872 ± 0.22 | 1265.38 ± 2.5 | 47.05 ± 4.7
323.15 K, x1 = 0.8885 | 0.73 ± 0.2 | 1276.87 ± 2.6 | 56.76 ± 5.7
323.15 K, x1 = 1 | 0.498 ± 0.17 | 1289.86 ± 2.6 | 79.82 ± 8.1
